Source: PMC11300601, “Zurletrectinib is a next-generation TRK inhibitor with strong intracranial activity against NTRK fusion-positive tumours with on-target resistance to first-generation agents” (British Journal of Cancer, 2024)

Key:
TRKA G667C = target: T1, TRKA G667C (Homo sapiens, UniProt P04629, G667C); test: In vitro HTRF kinase assay, recombinant TRKA G667C; format: biochemical; conditions: compared to TRKA G595R
T1 construct: purchased SignalChem Biotech Inc (Richmond, BC, Canada)
Description: Recombinant kinases were purchased from SignalChem Biotech Inc (Richmond, BC, Canada). In vitro kinase assays were performed following the optimization of the HTRF Kinase Assay (Cisbio). […] ATP concentrations ranged from 1 to 10 µM based on internal optimization.

[1] = tested on: IRC LMNA-NTRK1 TRKA G595R/G667C; test: Proliferation, clonogenic and western blot assays, IRC cell line with TRKA G595R/G667C; format: cell-based; conditions: human NTRK fusion-positive cell line with TRKA G595R/G667C compound mutation
Source text: (§1) NTRK fusion-positive colorectal cancer cell lines IRC, Kor1, and KM12 were utilized. The IRC and the KM12 cell lines were obtained from Dr. Bardelli and cultured according to the described protocols. The Kor1 cell line was obtained from Lee et al. and cultured on laminin pre-treated plates in RPMI media supplemented with 10% Fetal Bovine Serum (FBS). All cell lines were authenticated by STR and periodically screened for the presence of mycoplasma. For the mutant models, two human-derived colorectal cancer cell lines (IRC) and two mouse-derived glioma models (NLS) were used. […] Sequencing of the double mutant cell line was performed using MSK-IMPACT [25]. IRC primary cell lines were cultured with DMEM/F12 50:50 Mix (Corning) supplemented with 10% FBS. NLS Bcan-Ntrk1 Trka G598R and Bcan-Ntrk1 Trka G670C single mutants as well as double mutants NLS Bcan-Ntrk1 Trka G598R/G670A and NLS Bcan-Ntrk1 Trka G598R/G670C isogenic models were established using CRISPR/Cas9 to knock-in TRKA solvent-front and xDFG mutations into tumor cells derived from a Bcan-Ntrk1-driven glioma mouse model. Trka G598R is the mouse ortholog to human TRKA G595R while Trka G670A and Trka G670C are the mouse ortholog to human TRKA G667A and TRKA G667C, respectively. Mouse p53 ^−/^− Bcan-Ntrk1 glioma cells were plated on laminin-coated plates and cultured with Neurocult Stem Cell Basal Media with Proliferation Supplements (Stem Cell Technologies). Ba/F3 cell lines stably expressing WT and mutant versions (i.e. G595R, G667C/A, V573M, F589L, F633L, F617L, G623R/E, G639R, G696A/C, G709C, V608D/M) of human TRKA, TRKB or TRKC were generated using either lentiviral transduction or standard transfection methods by a contract research organization (Kyinno, Beijing, China).
CellTiter-Glo Cell Viability Assays (Promega) and crystal violet clonogenic assays were performed on primary NTRK fusion-positive colorectal cancer cell lines, mouse Ba/F3 cell lines and isogenic mouse glioma cell lines. […] Absorbance was read at 490 nm in accordance with Promega’s protocol. […]

Bcan-Ntrk1 Trka G670C = test: Proliferation and clonogenic assays, mouse glioma cell line; format: cell-based
Source text: as §1
(§2) CellTiter-Glo Cell Viability Assays (Promega) and crystal violet clonogenic assays were performed on primary NTRK fusion-positive colorectal cancer cell lines, mouse Ba/F3 cell lines and isogenic mouse glioma cell lines. For the CellTiter-Glo assays, three biological replicates were performed, with each condition being assayed in triplicate determinations. Cells were seeded in a 96-well plate in the afternoon at optimal density. […] Plates were removed from the incubator 72 h later and CellTiter-Glo reagent was added. Absorbance was read at 490 nm in accordance with Promega’s protocol. Data is presented as a survival percentage on the y-axis (mean ± STDEV) normalized to the control DMSO-treated cells deemed 100% viable. Drug concentrations on the x-axis are represented as a base 10 logarithm (LOG). […]
(§3) I n vi t r o kinase assay, crystal violet, and western blot quantifications
(§4) In vitro kinase assay quantification was performed using GraphPad Prism 9.

[2] = tested on: Bcan-Ntrk1 Trka G598R/G670C; test: as above; format: cell-based
Source text: as §1, §2, §3, §4

[3] = tested on: Bcan-Ntrk1 Trka G598R orthotopic gliomas; test: Intracranial efficacy, orthotopic mouse glioma model; format: in vivo, Athymic female mice; conditions: selitrectinib 30 mg/kg BID, repotrectinib and zurletrectinib 15 mg/kg BID
Description: (§5) In vivo brain orthotopic experiments were carried out at Memorial Sloan Kettering Cancer Center (MSKCC). Two mouse Bcan-Ntrk1 glioma models were used: single solvent front mutant Trka G598R (clone 1) and double xDFG mutant Trka G598R/G670A (clone 3). For each model, five arms were used with six mice per arm, totaling 60 mice. Athymic female mice (6–8 weeks old) were anesthetized with ketamine/xylazine and administered a preoperative dose of buprenorphine prior to stereotactic intracranial injection. Each mouse was injected with 200,000 cells in a volume of 2 uL 3 mm deep, 1 mm to the right of the sagittal suture (midline), and 1 mm posterior to the coronal suture behind the bregma with the aim being to target the right lateral ventricle. One week post cell implantation, the mice were randomized into different treatment groups and treatments began. […] Mouse weights were monitored twice a week and survival was recorded and graphed on GraphPad Prism 9 [31, 32].
(§6) Statistical analyses were conducted using GraphPad Prism 9 (GraphPad Software Inc.). For CellTiter-Glo assays, raw data obtained were normalized to the DMSO control utilizing Microsoft Excel. GraphPad Prism 9 was used to determine the 50% growth inhibition concentration (IC50) using non-linear regression and curve fitting. Data is presented as the mean ± standard deviation (STDEV) of all replicates. Measurements were assessed for normal distribution and homogeneity of variance using appropriate tests and were analyzed using analysis of variance or T-Tests, and nonparametric tests were used for non-normal distributed data. Animal studies utilized five arms with six or eight mice per arm. A Kaplan–Meier test was used to assess lifespan characteristics and for comparison between groups. Median survivals were obtained using GraphPad Prism 9. Sample size was based on statistical power analysis to ensure sufficient capability to detect a pre-specified effect size. We assumed a moderate effect size, with an alpha level set at 0.05, and a power (1-β) set at 0.80. P values were calculated using a Log-rank or Mantel–Cox test using GraphPad Prism 9. A P value < 0.05 was considered statistically significant.

[4] = tested on: Bcan-Ntrk1 Trka G598R/G670A orthotopic gliomas; test: as above; format: in vivo, Athymic female mice; conditions: selitrectinib 30 mg/kg BID, repotrectinib and zurletrectinib 15 mg/kg BID
Description: as §5, §6

Bcan-Ntrk1 Trka G598R = test: Proliferation and clonogenic assays, mouse glioma cell line; format: cell-based
Source text: as §1
as §2, with “(LOG). For the crystal violet assays, cells were seeded in a 24-well plate at optimal densities in the afternoon.” for “(LOG).”

[5] = tested on: Bcan-Ntrk1 Trka G598R/G670A; test: as above; format: cell-based
Source text: as §1
as §2, with “(LOG). For the crystal violet assays, cells were seeded in a 24-well plate at optimal densities in the afternoon.” for “(LOG).”

T1 sequence (P04629 33-796 G667C): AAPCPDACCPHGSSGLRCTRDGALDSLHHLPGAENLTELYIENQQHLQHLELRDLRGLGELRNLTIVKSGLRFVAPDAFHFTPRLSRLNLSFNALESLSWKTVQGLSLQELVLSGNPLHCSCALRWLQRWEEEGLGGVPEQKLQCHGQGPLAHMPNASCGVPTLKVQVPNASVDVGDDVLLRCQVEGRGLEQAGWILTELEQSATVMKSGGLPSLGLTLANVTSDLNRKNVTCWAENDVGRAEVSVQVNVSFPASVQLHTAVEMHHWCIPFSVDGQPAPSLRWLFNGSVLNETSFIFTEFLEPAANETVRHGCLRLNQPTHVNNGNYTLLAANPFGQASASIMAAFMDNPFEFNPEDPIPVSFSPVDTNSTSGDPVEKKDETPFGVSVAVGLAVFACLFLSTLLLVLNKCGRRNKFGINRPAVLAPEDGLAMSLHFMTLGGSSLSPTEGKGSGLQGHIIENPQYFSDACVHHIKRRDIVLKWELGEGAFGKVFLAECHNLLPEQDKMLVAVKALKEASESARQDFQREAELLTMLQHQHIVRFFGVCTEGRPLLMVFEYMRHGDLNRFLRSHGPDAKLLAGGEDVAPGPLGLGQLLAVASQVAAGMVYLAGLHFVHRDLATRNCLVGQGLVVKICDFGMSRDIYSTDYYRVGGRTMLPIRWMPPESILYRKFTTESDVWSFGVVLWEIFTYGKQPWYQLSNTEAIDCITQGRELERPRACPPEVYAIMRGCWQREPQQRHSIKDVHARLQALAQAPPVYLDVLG

## C[C@@H]1CCc2ncc(F)cc2[C@H]2CCCN2c2ccn3ncc(c3n2)C(=O)N1 [Selitrectinib, selitrectinib]
TRKA G667C
  Potency against TRKA G667C xDFG mutant recombinant kinase: potency was significantly reduced
[1]
  Inhibition of growth and TRKA-mediated signaling: not with the TRKA G595R/G667C compound mutation
Bcan-Ntrk1 Trka G670C
  Activity against mouse glioma cell line: less so
[2]
  Activity against mouse glioma cell line: less so
[3]
  Survival of mice, comparison between next-generation agents: no significant difference in the survival
[4]
  Median survival: 41.5 days
Bcan-Ntrk1 Trka G598R
  Activity against mouse glioma cell line: highly active
[5]
  Activity against mouse glioma cell line: highly active

## zurletrectinib
TRKA G667C
  Potency against TRKA G667C xDFG mutant recombinant kinase: potency was significantly reduced
[1]
  Inhibition of growth and TRKA-mediated signaling: not with the TRKA G595R/G667C compound mutation
Bcan-Ntrk1 Trka G670C
  Activity against mouse glioma cell line: less so
[2]
  Activity against mouse glioma cell line: less so
[3]
  Survival of mice, comparison between next-generation agents: no significant difference in the survival
[4]
  Median survival: 104 days
Bcan-Ntrk1 Trka G598R
  Activity against mouse glioma cell line: highly active
[5]
  Activity against mouse glioma cell line: highly active
